pIC50: −log10 of the molar value. Active and inactive are the calls of the source. The rule behind the calls is not given here.
What was measured:
[1] = biological target: Lysosomal alpha-glucosidase (Homo sapiens, UniProt P10253); assay: Inhibition of human lysosomal alpha-glucosidase preincubated for 10 mins followed by p-nitrophenyl-alpha-D glucopyranoside addition and measured after 30 mins by absorbance based analysis
L929 = assay: Cytotoxicity against mouse L929 cells by MTT assay; format: toxicity, cell-based
HepG2 = assay: Upregulation of PPAR-gamma expression in human HepG2 cells by RayBio PPAR-gamma TF activity assay; format: functional, cell-based; conditions: dose 6.25-100 µM

| Compound | inhibition ([1]; time 40.0 min) | pIC50 [1] | Activity (L929) | Activity (HepG2) |
| --- | --- | --- | --- | --- |
| O=C1NC(=S)S/C1=C\c1ccc(/C=N/Nc2nc(-c3ccc(Br)cc3)cs2)cc1 | – | 4.49 | Non-toxic | Dose-dependent-effect |
| O=C(O)CN1C(=O)/C(=C/c2ccc(/C=N/Nc3nc(-c4ccccc4)cs3)cc2)SC1=S | – | 4.54 | Non-toxic | – |
| O=C1NC(=S)S/C1=C\c1ccc(/C=N/Nc2nc(-c3ccccc3)cs2)cc1 | – | 4.26 | Non-toxic | – |
| O=C1NC(=S)S/C1=C\c1ccc(/C=N/Nc2nc(-c3ccc(Cl)cc3)cs2)cc1 | – | 4.48 | Non-toxic | Dose-dependent-effect |
| COc1ccc(-c2csc(N/N=C/c3ccc(/C=C4\SC(=S)NC4=O)cc3)n2)cc1 | – | 4.34 | Non-toxic | – |
| O=C(O)CN1C(=O)/C(=C/c2ccc(/C=N/Nc3nc(-c4ccc(Br)cc4)cs3)cc2)SC1=S | – | 4.62 | Non-toxic | – |

More lines, main results first:

| inhibition ([1]; time 40.0 min) | pIC50 [1] | Compound | Activity (L929) | Activity (HepG2) |
| --- | --- | --- | --- | --- |
| inactive | – | Cc1ccc(-c2csc(N/N=C/c3ccc(/C=C4\SC(=S)N(CC(=O)O)C4=O)cc3)n2)cc1 | Non-toxic | – |
| – | 3.83 | O=C1NC(=S)S/C1=C\c1ccc(/C=N/Nc2nc(-c3ccc(F)cc3)cs2)cc1 | Non-toxic | – |
| – | 3.98 | Cc1ccc(-c2csc(N/N=C/c3ccc(/C=C4\SC(=S)NC4=O)cc3)n2)cc1 | Non-toxic | – |
| – | 4.20 | COc1ccc(-c2csc(N/N=C/c3ccc(/C=C4\SC(=S)N(CC(=O)O)C4=O)cc3)n2)cc1 | Non-toxic | – |
| – | 4.28 | O=C(O)CN1C(=O)/C(=C/c2ccc(/C=N/Nc3nc(-c4ccc(F)cc4)cs3)cc2)SC1=S | Non-toxic | – |
| – | 4.21 | O=C(O)CN1C(=O)/C(=C/c2ccc(/C=N/Nc3nc(-c4ccc(Cl)cc4)cs3)cc2)SC1=S | Non-toxic | – |

Reference: ChEMBL document CHEMBL6177923, “Novel rhodanine-thiazole hybrids as potential antidiabetic agents: a structure-based drug design approach” (RSC Med Chem, 2025)
